Source: ChEMBL document CHEMBL3856191, “Structural modifications at the 6-position of thieno[2,3-d]pyrimidines and their effects on potency at FLT3 for treatment of acute myeloid leukemia” (Eur J Med Chem, 2016)

How the values were obtained:
[1] = biological target: Serine-protein kinase ATM (Homo sapiens) (UniProt Q13315); test: Inhibition of human ATM assessed as remaining activity at 10 uM preincubated for 15 mins followed by substrate addition for 30 mins in presence of [gamma-32P]ATP by […] assay
Chain of Serine-protein kinase ATM (Homo sapiens) (Q13315 whole entry): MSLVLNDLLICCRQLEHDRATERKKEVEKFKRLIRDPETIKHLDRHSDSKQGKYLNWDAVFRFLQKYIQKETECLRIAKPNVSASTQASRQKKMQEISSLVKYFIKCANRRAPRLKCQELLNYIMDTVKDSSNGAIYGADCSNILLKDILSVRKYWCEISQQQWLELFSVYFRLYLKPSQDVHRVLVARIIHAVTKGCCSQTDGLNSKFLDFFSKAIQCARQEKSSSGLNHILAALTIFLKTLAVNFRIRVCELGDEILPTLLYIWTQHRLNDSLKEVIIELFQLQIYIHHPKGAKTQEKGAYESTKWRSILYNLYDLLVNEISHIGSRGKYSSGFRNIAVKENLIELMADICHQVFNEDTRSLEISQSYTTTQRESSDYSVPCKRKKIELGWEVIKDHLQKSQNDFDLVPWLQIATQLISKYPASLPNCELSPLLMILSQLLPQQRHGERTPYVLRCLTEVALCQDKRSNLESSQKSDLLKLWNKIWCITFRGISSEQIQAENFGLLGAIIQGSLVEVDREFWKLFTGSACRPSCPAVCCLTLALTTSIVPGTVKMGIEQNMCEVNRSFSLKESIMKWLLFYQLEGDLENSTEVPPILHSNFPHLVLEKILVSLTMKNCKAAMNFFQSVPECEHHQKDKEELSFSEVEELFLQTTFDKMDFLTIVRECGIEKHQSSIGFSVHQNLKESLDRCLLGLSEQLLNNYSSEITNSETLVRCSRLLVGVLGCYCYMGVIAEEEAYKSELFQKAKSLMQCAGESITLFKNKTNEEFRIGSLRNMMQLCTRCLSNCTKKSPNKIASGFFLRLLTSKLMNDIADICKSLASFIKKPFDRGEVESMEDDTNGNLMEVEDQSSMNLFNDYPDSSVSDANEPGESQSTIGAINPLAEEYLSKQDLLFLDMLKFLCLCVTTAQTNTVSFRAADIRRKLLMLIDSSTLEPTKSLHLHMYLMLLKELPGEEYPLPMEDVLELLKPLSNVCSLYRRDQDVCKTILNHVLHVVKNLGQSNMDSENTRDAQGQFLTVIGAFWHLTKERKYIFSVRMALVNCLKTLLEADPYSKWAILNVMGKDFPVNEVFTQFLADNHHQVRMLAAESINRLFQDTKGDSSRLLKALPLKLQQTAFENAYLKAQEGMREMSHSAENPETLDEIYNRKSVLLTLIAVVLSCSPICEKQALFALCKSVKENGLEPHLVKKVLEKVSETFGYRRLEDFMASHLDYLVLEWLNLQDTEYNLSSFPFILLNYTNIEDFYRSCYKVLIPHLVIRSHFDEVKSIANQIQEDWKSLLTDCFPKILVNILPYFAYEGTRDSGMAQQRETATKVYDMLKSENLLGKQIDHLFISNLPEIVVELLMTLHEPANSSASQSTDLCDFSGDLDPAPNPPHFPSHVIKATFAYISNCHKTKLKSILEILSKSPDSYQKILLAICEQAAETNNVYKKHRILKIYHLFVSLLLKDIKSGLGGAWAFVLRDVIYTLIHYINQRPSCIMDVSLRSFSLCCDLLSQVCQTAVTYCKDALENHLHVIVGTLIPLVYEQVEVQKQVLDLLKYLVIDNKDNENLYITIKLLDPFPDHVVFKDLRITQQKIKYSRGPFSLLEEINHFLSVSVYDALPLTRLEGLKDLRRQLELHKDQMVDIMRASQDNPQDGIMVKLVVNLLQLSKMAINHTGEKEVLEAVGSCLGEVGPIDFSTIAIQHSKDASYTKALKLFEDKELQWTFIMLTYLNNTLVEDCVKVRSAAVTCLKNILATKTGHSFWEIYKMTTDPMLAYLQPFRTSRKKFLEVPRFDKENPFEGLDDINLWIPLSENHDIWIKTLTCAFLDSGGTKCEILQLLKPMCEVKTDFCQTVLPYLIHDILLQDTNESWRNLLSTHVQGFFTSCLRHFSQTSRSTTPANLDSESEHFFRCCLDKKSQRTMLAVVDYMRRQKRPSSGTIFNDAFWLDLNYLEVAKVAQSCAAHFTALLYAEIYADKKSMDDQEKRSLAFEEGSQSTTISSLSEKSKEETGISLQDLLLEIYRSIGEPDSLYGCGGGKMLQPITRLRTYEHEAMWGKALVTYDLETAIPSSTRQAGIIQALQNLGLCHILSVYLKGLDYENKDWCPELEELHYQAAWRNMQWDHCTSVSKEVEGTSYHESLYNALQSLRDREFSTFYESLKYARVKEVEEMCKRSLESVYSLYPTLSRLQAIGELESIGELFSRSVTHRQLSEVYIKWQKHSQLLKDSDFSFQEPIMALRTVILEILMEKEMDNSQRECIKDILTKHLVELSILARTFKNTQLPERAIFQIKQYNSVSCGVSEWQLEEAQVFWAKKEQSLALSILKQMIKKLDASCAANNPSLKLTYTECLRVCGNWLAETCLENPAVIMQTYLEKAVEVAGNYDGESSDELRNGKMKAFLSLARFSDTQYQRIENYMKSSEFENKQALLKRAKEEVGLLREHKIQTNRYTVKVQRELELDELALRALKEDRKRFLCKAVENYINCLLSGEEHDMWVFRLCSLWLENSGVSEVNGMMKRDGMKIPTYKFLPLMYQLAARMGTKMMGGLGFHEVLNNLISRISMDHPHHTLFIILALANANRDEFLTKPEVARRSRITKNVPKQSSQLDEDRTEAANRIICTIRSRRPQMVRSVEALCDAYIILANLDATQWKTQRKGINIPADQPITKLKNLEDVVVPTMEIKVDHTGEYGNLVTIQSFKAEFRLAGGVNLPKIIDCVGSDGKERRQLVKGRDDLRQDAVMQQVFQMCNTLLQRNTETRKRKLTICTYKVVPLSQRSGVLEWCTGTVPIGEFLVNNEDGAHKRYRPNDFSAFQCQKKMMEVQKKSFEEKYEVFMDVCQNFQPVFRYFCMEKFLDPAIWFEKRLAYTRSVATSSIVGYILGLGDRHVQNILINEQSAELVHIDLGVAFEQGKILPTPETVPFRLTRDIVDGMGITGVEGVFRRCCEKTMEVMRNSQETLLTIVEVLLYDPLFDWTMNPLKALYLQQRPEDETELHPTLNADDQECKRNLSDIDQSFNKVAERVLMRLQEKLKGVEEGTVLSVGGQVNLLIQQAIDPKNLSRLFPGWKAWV

[2] = biological target: Aurora kinase A (Homo sapiens) (UniProt O14965); test: Inhibition of recombinant human AURORA A expressed in insect Sf21 cells assessed as remaining activity at 10 uM preincubated for 15 mins followed by Kemptide substrate addition for 30 mins in presence of [gamma-32P]ATP by […] assay
[3] = biological target: Tyrosine-protein kinase receptor UFO (Homo sapiens) (UniProt P30530); test: Inhibition of recombinant human AXL expressed in insect Sf21 cells assessed as remaining activity at 10 uM preincubated for 15 mins followed by poly(Glu:Tyr) substrate addition for 30 mins in presence of [gamma-32P]ATP by […] assay
[4] = biological target: Epidermal growth factor receptor (Homo sapiens) (UniProt P00533); test: Inhibition of human EGFR assessed as remaining activity at 10 uM in presence of [gamma-32P]ATP by […] assay
[5] = biological target: Tyrosine-protein kinase Fes/Fps (Homo sapiens) (UniProt P07332); test: Inhibition of recombinant human FES expressed in insect Sf21 cells assessed as remaining activity at 10 uM preincubated for 15 mins followed by poly(Glu:Tyr) substrate addition for 30 mins in presence of [gamma-32P]ATP by […] assay
Chain of Tyrosine-protein kinase Fes/Fps (Homo sapiens) (P07332 whole entry): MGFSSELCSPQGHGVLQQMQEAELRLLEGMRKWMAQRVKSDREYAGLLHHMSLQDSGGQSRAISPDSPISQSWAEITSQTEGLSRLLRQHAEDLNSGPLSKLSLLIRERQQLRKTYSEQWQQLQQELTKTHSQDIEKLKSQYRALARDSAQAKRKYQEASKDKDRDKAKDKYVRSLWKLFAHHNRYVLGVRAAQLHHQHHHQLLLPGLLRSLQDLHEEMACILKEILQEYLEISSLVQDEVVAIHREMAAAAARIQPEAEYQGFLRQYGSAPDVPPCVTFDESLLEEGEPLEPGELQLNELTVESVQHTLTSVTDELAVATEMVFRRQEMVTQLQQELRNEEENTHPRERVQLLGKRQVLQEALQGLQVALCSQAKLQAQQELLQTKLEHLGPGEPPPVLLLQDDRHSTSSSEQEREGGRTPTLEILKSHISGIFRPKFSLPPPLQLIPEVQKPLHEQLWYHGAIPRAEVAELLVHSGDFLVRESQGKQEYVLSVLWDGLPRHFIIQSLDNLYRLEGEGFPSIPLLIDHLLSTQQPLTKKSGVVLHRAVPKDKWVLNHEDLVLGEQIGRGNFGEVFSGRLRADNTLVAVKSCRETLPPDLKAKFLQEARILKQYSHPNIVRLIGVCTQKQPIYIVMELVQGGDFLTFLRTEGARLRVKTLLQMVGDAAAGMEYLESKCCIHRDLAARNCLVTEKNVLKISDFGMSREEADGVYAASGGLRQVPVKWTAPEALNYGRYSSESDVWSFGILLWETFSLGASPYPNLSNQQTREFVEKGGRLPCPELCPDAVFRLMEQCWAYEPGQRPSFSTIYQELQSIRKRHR

[6] = biological target: Vascular endothelial growth factor receptor 1 (Homo sapiens) (UniProt P17948); test: Inhibition of recombinant human FLT1 expressed in insect Sf21 cells assessed as remaining activity at 10 uM preincubated for 15 mins followed by poly(Glu:Tyr) substrate addition for 30 mins in presence of [gamma-32P]ATP by […] assay
[7] = biological target: Inhibitor of nuclear factor kappa-B kinase subunit beta (Homo sapiens) (UniProt O14920); test: Inhibition of recombinant human IKK-beta expressed in insect Sf21 cells assessed as remaining activity at 10 uM preincubated for 15 mins followed by IKKtide substrate addition for 30 mins in presence of [gamma-32P]ATP by […] assay
[8] = biological target: Mitogen-activated protein kinase 8 (Homo sapiens) (UniProt P45983); test: Inhibition of recombinant human JNK1alpha1 expressed in insect Sf21 cells assessed as remaining activity at 10 uM preincubated for 15 mins followed by ATF2 substrate addition for 30 mins in presence of [gamma-32P]ATP by […] assay
[9] = biological target: Mitogen-activated protein kinase 9 (Homo sapiens) (UniProt P45984); test: Inhibition of recombinant human JNK2alpha2 expressed in insect Sf21 cells assessed as remaining activity at 10 uM preincubated for 15 mins followed by ATF2 substrate addition for 30 mins in presence of [gamma-32P]ATP by […] assay
Chain of Mitogen-activated protein kinase 9 (Homo sapiens) (P45984 whole entry, looked up): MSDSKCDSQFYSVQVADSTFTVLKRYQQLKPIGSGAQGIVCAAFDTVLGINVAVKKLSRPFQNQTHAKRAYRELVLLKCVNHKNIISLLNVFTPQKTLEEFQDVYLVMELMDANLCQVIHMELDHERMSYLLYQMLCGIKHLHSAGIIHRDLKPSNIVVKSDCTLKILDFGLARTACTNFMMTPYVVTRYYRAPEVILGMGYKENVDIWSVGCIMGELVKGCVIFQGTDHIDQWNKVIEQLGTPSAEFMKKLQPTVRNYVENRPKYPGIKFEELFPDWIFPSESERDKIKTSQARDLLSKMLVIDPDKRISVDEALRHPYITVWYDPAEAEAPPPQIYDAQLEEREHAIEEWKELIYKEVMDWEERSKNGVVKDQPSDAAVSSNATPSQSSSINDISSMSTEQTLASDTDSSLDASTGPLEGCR

[10] = biological target: Mitogen-activated protein kinase 10 (Homo sapiens) (UniProt P53779); test: Inhibition of recombinant human JNK3 expressed in insect Sf21 cells assessed as remaining activity at 10 uM preincubated for 15 mins followed by ATF2 substrate addition for 30 mins in presence of [gamma-32P]ATP by […] assay
[11] = biological target: Vascular endothelial growth factor receptor 2 (Homo sapiens) (UniProt P35968); test: Inhibition of recombinant human KDR expressed in insect Sf21 cells assessed as remaining activity at 10 uM preincubated for 15 mins followed by poly(Glu:Tyr) substrate addition for 30 mins in presence of [gamma-32P]ATP by […] assay
[12] = biological target: Tyrosine-protein kinase Lck (Homo sapiens) (UniProt P06239); test: Inhibition of recombinant human LCK expressed in insect cells assessed as remaining activity at 10 uM preincubated for 15 mins followed by poly(Glu:Tyr) substrate addition for 30 mins in presence of [gamma-32P]ATP by […] assay
[13] = biological target: Tyrosine-protein kinase Lyn (Homo sapiens) (UniProt P07948); test: Inhibition of LYN (unknown origin) assessed as remaining activity at 10 uM in presence of [gamma-32P]ATP by […] assay
Chain of Tyrosine-protein kinase Lyn (Homo sapiens) (P07948 2-512 limits assumed): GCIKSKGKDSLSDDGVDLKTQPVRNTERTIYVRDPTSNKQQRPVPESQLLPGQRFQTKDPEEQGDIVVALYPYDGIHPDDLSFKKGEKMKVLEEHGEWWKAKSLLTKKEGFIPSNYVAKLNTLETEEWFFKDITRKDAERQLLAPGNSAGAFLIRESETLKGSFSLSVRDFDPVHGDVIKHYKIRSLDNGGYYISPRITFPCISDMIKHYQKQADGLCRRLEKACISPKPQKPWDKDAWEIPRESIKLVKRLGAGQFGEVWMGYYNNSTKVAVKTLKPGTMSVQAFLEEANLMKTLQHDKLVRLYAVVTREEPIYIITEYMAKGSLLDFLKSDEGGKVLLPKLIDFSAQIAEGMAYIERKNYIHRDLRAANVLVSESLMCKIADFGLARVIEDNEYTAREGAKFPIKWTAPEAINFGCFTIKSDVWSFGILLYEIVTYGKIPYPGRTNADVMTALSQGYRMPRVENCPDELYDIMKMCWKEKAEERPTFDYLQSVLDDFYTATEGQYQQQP

[14] = biological target: Mitogen-activated protein kinase 1 (Homo sapiens) (UniProt P28482); test: Inhibition of recombinant human MAPK1 expressed in Escherichia coli assessed as remaining activity at 10 uM preincubated for 15 mins followed by myelin basic protein substrate addition for 30 mins in presence of [gamma-32P]ATP by […] assay
[15] = biological target: Dual specificity mitogen-activated protein kinase kinase 7 (Homo sapiens) (UniProt O14733); test: Inhibition of human MKK7beta assessed as remaining activity at 10 uM in presence of [gamma-32P]ATP by […] assay
[16] = biological target: Serine/threonine-protein kinase mTOR (Homo sapiens) (UniProt P42345); test: Inhibition of human mTOR assessed as remaining activity at 10 uM in presence of [gamma-32P]ATP by […] assay
[17] = biological target: Protein kinase C alpha type (Homo sapiens) (UniProt P17252); test: Inhibition of recombinant human PKC-alpha expressed in insect Sf9 cells assessed as remaining activity at 10 uM preincubated for 15 mins followed by Histone substrate addition for 30 mins in presence of [gamma-32P]ATP by […] assay
[18] = biological target: Mitogen-activated protein kinase 14 (Homo sapiens) (UniProt Q16539); test: Inhibition of human SAPK2a assessed as remaining activity at 10 uM in presence of [gamma-32P]ATP by […] assay
[19] = biological target: Tyrosine-protein kinase SYK (Homo sapiens) (UniProt P43405); test: Inhibition of recombinant human SYK expressed in insect Sf21 cells assessed as remaining activity at 10 uM preincubated for 15 mins followed by poly(Glu:Tyr) substrate addition for 30 mins in presence of [gamma-32P]ATP by […] assay
[20] = AUC (0 to infinity) in Sprague-Dawley rat at 5 mg/kg, iv up to 24 hrs by LC/MS/MS analysis; type: ADME, organism-based; set-up: dose 5 mg/kg, route intravenous, time infinity; conditions: in vivo
[21] = Volume of distribution at steady state in Sprague-Dawley rat at 5 mg/kg, iv up to 24 hrs by LC/MS/MS analysis; type: ADME, organism-based; conditions: in vivo, read-out: Vdss
[22] = Elimination half life in Sprague-Dawley rat at 5 mg/kg, iv by LC/MS/MS analysis; type: ADME, organism-based; conditions: in vivo, read-out: beta t1/2 (converted)
[23] = Elimination half life in Sprague-Dawley rat at 30 mg/kg, po by LC/MS/MS analysis; type: ADME, organism-based; conditions: in vivo, read-out: beta t1/2 (converted)
cells [24] = conditions: Homo sapiens, K562, 48 h
Description: Growth inhibition of human K562 cells after 48 hrs by XTT assay

cells [25] = conditions: Homo sapiens, HL-60, 48 h
Description: Growth inhibition of human HL60 cells expressing wild type FLT-3 after 48 hrs by XTT assay

cells [26] = conditions: Homo sapiens, MV4-11, 48 h
Description: Growth inhibition of human MV4-11 cells expressing FLT3-ITD after 48 hrs by XTT assay

CNCCOc1ccc(-c2sc3nc(-c4cccs4)nc(NN4C(=O)C=C(C)C4=O)c3c2C)cc1.Cl
Activity [1]: 30%
Activity [2]: 67%
Activity [3]: 44%
Activity [4]: 87%
Activity [5]: 78%
Activity [6]: 40%
Activity [7]: 63%
Activity [8]: 96%
Activity [9]: 113%
Activity [10]: 96%
Activity [11]: 53%
Activity [12]: 31%
Activity [13]: 58%
Activity [14]: 114%
Activity [15]: 111%
Activity [16]: 79%
Activity [17]: 81%
Activity [18]: 92%
Activity [19]: 80%
AUC(0-inf) [20]: 2.12 µg·h/mL
Vd [21]: 8.22 L/kg
half-life [22]: 7.61 h
half-life [23]: 15.2 h
GI50 (cells [24]): 0.564 µM
GI50 (cells [25]): 0.25 µM
GI50 (cells [26]): 0.54 µM
